Measurements taken from patent US4788206A, “Pentadieneamides” (Hoffmann-La Roche Inc., priority 1987, dated 1988).
Read-outs that look alike come from different tables or passages of the source.

Legend:
[1] = system: PAF-Induced Bronchoconstriction; assay: PAF Induced Bronchoconstriction Assay; format: in vivo, guinea pig; details: for inhibition in vivo at 50 mg/kg: Cavia porcellus, po, 50 mg/Kg p.o., 2-hour pretreatment, read-out: Percent Inhib. of PAF-Induced Bronchoconstriction, 50 mg/Kg p.o.; for Percent Inhib. of PAF-Induced Bronchoconstriction, mg/Kg i.v.: i.v. (dose not given), 1 minute pretreatment, PAF 1.0 μg/kg i.v.
Procedure: PAF Induced Bronchoconstriction Assay
Male animals (Hartlet Strain 400-500 g) were anesthetized with urethane (2 g/kg. i.p.). Each animals' trachea was cannulated and the guinea pigs were repirated using a Harvard small animal rodent respirator (3.0 cc stroke volume, 40 breaths per min.). Tracheal pressure was recorded from a cannula inserted in the trachea and connected to a Statham Pressure Transducer.
The jugular vein was cannulated for administering compounds. Spontaneous breathing was arrested with succinylcholine (1.2 mg/kg. i.v.) administered 2 minutes prior to intravenous injection of platelet activating factor (PAF).
For, the intravenous testing, the guinea pig is given a 5-minute pretreatment with propranolol at a dose of 0.1 mg/kg intravenously. The test compound is administered with a 1 minute pretreatment prior to intravenous challenge with PAF. The animal is than challenged with a 1.0 μg/kg intravenous dose of PAF and the change is tracheal pressure is measured.
For the oral testing, the procedure includes a 2-hour pretreatment period with the test compound administered through an oral gavage tube. Propranolol or succinylcholine and PAF are administered intravenously, and the change in tracheal pressure measured.
The change is tracheal pressure is determined by subtracting the steady state baseline achieved after administration of succinylcholine from the peak bronchoconstriction seen after challenge with PAF. The mean is calculated for each test compound and compared to the mean of the control animals to give the percent inhibition of bronchoconstriction. The standard error is calcuated as the standard error of the mean.

[2] = target: T1, PAF Binding, dog platelets (Canis lupus familiaris, UniProt A0A8I3NSH0); assay: PAF Binding Assay (inhibition of 3H-PAF binding to washed dog platelets)
T1 construct: Washed platelets were prepared by resuspending the platelet pellet once with PBS containing 1 mM EDTA; from tissue; host or cells: washed platelets from dog blood
T1 sequence (A0A8I3NSH0 1-343): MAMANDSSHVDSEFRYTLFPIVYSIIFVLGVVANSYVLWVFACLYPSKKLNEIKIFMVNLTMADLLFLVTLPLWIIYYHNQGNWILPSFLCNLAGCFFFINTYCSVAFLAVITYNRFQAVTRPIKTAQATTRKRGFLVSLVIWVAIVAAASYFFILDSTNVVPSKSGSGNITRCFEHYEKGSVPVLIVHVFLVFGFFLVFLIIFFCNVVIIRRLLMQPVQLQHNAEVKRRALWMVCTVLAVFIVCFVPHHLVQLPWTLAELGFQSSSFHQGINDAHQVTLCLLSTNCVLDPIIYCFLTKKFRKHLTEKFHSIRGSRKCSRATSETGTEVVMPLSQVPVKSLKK
Procedure: The binding assay was done in 400 μl polyethylene microcentrifuge tubes (Beckman) containing 50 μl of an oil mixture of 2 parts Siliconol AR200 (Serva): 1 part Silicone Fluid (Arthur H. Thomas). Buffer, standards, or analogs (150 μl total volume) were added to the tubes. Radiolabelled ^3 H-PAF (50 μl) was then added to the tubes. The reaction was started by the addition of 50 μl of dog platelets (2×10^7 platelets). The tubes were capped, inverted several times to mix, and incubated for 10 minutes at room temperature. The platelets were separated from the incubation mixture by centrifuging 1 minute in a Beckman Microfuge B centrifuge. The tip of the microfuge tube was cut off, and the platelets were washed out of the tip with 200 μl of 50% methanol (Burdick and Jackson). Aquasol (NEN, 10 ml) was added and the radioactivity in the samples was determined using an LS 8100 Beckman liquid scintillation counter linked to a Techtran tape recorder. Data was processed through an in-house computer system. Alternatively, radioactivity was determined using a Searle Mark III liquid scintillation counter linked to a Iso-Data microprocessor.
(b) Preparation of Platelets
Blood was collected from anesthesized or unanesthesized dogs into 50 ml plastic centrifuge tubes containing 3.8% sodium citrate as the anticoagulant (1 volume of citrate/9 volumes of blood). The red cells were removed by centrifugation for 15 minutes at 600 rpm (100-125 g) at room temperature. An aliquot of the supernatant platelet rich plasma (PRP) was saved for cell counting and the remainder was acidified to PH 6.5 with 0.15M citric acid. The platelet pellet was obtained after a 10 minute centrifugation at 2000 rpm (1000 g) at room temperature. Washed platelets were prepared by resuspending the platelet pellet once with PBS containing 1 mM EDTA, centrifuging as noted, and then resuspending the platelets in 0.1% BSA-PBS. An aliquot of the washed platelets was counted. Platelets used for binding assays were diluted to 2×10^7 platelets/assay tube (4×10^8 platelets/ml). Platelet counting was done using a Royco Cell-Crit 921.

[3] = dog platelets, 3H-PAF, 10 minutes at room temperature, read-out: Inhib of PAF Binding IC50

| Structure (SMILES) | inhibition in vivo at 50 mg/kg [1] [%] | Percent Inhib. of PAF-Induced Bronchoconstriction, mg/Kg i.v. [1] [%] | IC50 [2, 3] [nM] | IC50 [2] [nM] |
| --- | --- | --- | --- | --- |
| CCC(CCCc1cccnc1)NC(=O)/C=C/C=C(c1ccc(OC)cc1)c1ccc(OC)cc1 (racemic) [[R,S-(E)]-N-1-ethyl-4-(3-pyridinyl)butyl]-5,5-bis(4-methoxyphenyl)-2,4-pentadienamide] | 99 ± 1 | 86 ± 8 | 90 |  |
| COc1ccc(C(=C/C=C/C(=O)NC(CCCc2cccnc2)c2ccc(Br)cc2)c2ccc(OC)cc2)cc1 (racemic) [[R,S-(E)]-N-[1-(4-bromophenyl)-4-(3-pyridinyl)butyl]-5,5-bis(4-methoxyphenyl)2.4-pentadienamide] |  | 6 ± 13 | > 1000 |  |
| CCCCC(CCCc1cccnc1)NC(=O)/C=C/C=C(c1ccc(OC)cc1)c1ccc(OC)cc1 (racemic) [[R,S-(E)]-N-[1-butyl-4-(3-pyridinyl)butyl]-5,5-bis(4-methoxyphenyl)-2,4-pentadienamide] |  | 42 ± 7 | > 1000 |  |
| COc1ccc(C(=C/C=C/C(=O)NC(CCCc2cccnc2)C2CCCCC2)c2ccc(OC)cc2)cc1 (racemic) [[R,S-(E)]-N-[1-cyclohexyl-4-(3-pyridinyl)butyl]-5,5-bis(4-methoxyphenyl)-2,4-pentadienamide] |  | 11 ± 15 | > 1000 |  |
| COc1ccc(C(=C/C=C/C(=O)NC(CCCc2cccnc2)C2CCCC2)c2ccc(OC)cc2)cc1 (racemic) [[R,S-(E)]-N-[1-cyclopentyl-4-(3-pyridinyl)butyl]-5,5-bis-(4-methoxyphenyl)-2,4-pentadienamide] |  | 19 ± 14 | > 1000 |  |
| COc1ccc(C(=C/C=C/C(=O)NC(CCCc2cccnc2)C2CC2)c2ccc(OC)cc2)cc1 (racemic) [[R,S-(E)]-N-[1-cyclopropyl-4-(3-pyridinyl)butyl]-5,5-bis-(4-methoxyphenyl)-2,4-pentadienamide] | 99 ± 0.3 | 98 ± 1 | 60 |  |
| CCCCC/C(=C\C=C\C(=O)NC(C)CCCc1cccnc1C)c1ccc(OC)cc1 (racemic) [[R,S-(E,E)]-5-(4-methoxyphenyl)-N-[1-methyl-4-(2-methyl-3-pyridinyl)butyl]-2,4-decadienamide] |  | 77 ± 5 | 5 |  |
| COc1ccc(/C(=C/C=C/C(=O)NCCCCc2cccnc2)c2ccccc2OC)cc1 [(2E,4Z)-5-(2-methoxyphenyl)-5-(4-methoxyphenyl)-N-[4-(3-pyridinyl)butyl]-2,4-pentadienamide] |  | 36 ± 6 | 55 |  |
| COc1ccc(/C(=C/C=C/C(=O)NCCCCc2cccnc2)c2cccnc2)cc1 [(2E,4Z)-5-(4-methoxyphenyl)-5-(3-pyridinyl)-N-[4-(3-pyridinyl)butyl]-2,4-pentadienamide] | 39 ± 8 | 78 ± 10 | 50 |  |
| CCCCC/C(=C/C=C/C(=O)NCCCCc1cccnc1)c1ccc(OC)cc1 [(2E,4Z)-5-(4-methoxyphenyl)-N-[4-(3-pyridinyl)butyl]-2,4-decadienamide] |  | 68 ± 11 | 40 |  |
| COc1ccccc1C(=C/C=C/C(=O)NCCCCc1cccnc1)c1ccccc1OC [(E)-5,5-bis (2-methoxyphenyl)-N-[4-(3-pyridinyl)butyl]-2,4-pentadienamide] |  | 40 ± 2 | 40 |  |
| COc1ccc(C(=C/C=C/C(=O)NCCCCc2cccnc2)c2ccc(OC)c(OC)c2)cc1OC [(E)-5,5-bis(3,4-Dimethoxyphenyl)-N-[4-(3-pyridinyl)butyl]-2,4-pentadienamide] | 71 ± 2 | 78 ± 6 | 55 |  |
| O=C(/C=C/C=C(c1cccc([N+](=O)[O-])c1)c1cccc([N+](=O)[O-])c1)NCCCCc1cccnc1 [(E)-5,5-bis(3-nitrophenyl)-N-[4-(3-pyridinyl)butyl)-2,4-pentadienamide] |  | 18 ± 2 |  | 115 |
| COc1ccc(C(=C/C=C/C(=O)NCCCc2ccncc2)c2ccc(OC)cc2)cc1 [(E)-5,5-bis(4-methoxyphenyl)-N-[3-(4-pyridinyl)propyl]-2,4-pentadienamide] |  | 8 ± 12 | 100 |  |
| COc1ccc(C(=C/C=C/C(=O)Nc2ccc(Cc3cccnc3)cc2)c2ccc(OC)cc2)cc1 [(E)-5,5-bis(4-methoxyphenyl)-N-[4-(3pyridinylmethyl)phenyl]-2,4-pentadienamide] |  | 3 ± 7 | 250 |  |
| COc1ccc(C(=C/C=C/C(=O)NCCCCCc2ccccn2)c2ccc(OC)cc2)cc1 [(E)-5,5-bis(4-methoxyphenyl)-N-[5-(2-pyridinyl)pentyl]-2,4-pentadienamide] |  | 27 ± 6 | 1000 |  |
| COc1ccc(C(=C/C=C/C(=O)NC(CCCc2cccnc2)CCCc2cccnc2)c2ccc(OC)cc2)cc1 [(E)-5,5-bis-(4-methoxyphenyl)-N-[1-[3-(3-pyridinyl)propyl]-4-(3-pyridinyl)-butyl]-2,4-pentadienamide] |  | 50 ± 15 | 500 |  |
| COc1ccc(C(=C/C=C/C(=O)Nc2ccc(-c3cccnc3)cc2)c2ccc(OC)cc2)cc1 [(E)-5,5-bis-(4-methoxyphenyl)-N-[4-(3-pyridinyl)phenyl]-2,4-pentadienamide] | 84 ± 8 | 97 ± 1 | 10 |  |
| COc1ccc(/C(=C\C=C\C(=O)NCCCCc2cccnc2)c2ccccc2OC)cc1 [(E,E)-5-(2-methoxyphenyl)-5-(4-methoxyphenyl)-N-[4-(3-pyridinyl)butyl]-2,4-pentadienamide] | 21 ± 7 | 80 ± 5 | 45 |  |
| COc1ccc(/C(=C\C=C\C(=O)NCCCCc2cccnc2)c2cccnc2)cc1 [(E,E)-5-(4-methoxyphenyl)-5-(3-pyridinyl)-N-[4-(3-pyridinyl)butyl]-2,4-pentadienamide] | 85 ± 8 | 97 ± 0.6 | 25 |  |
| CCCCC/C(=C\C=C\C(=O)NCCCCc1cccnc1)c1ccc(OC)cc1 [(E,E)-5-(4-methoxyphenyl)-N-[4-(3-pyridinyl)butyl]-2,4-decadienamide] | 26 ± 2 | 99 ± 1 | 15 |  |
| CCCCC/C(=C/C=C/C(=O)N[C@H](C)CCCc1cccnc1)c1cccc(F)c1 [[R-(2E,4Z)]-5-(3-fluorophenyl)-N-[1-methyl-4-(3-pyridinyl)butyl]-2,4-decadienamide] |  | 93 ± 1 | 105 |  |
